In the assay the test system is MCF7 ADR cells. Put plainly: Activity in MDR cells: inhibition of phosphohistone H3 (phH3) in MCF7 ADR cells, with and without UIC2 mAb. Format: cell-based. As for the experimental part: MCF7 ADR cells are known to highly express Pgp and other efflux transporters.
On day 1; 8×10^4 MCF7 ADR cells/ml were plated into a 96 well plate in 100 μl of media (DMEM, 10% FCS, 1% glutamine) and left to adhere at 37° C. overnight.
After 24 hours the cells were examined using the light microscope, and any cellular change in morphology was noted. The cells were then fixed with 100 μl of 3.7% formaldehyde for 30 minutes at room temperature and then washed in PBS using an automated plate washer. 1001 PBS 0.5% triton X-100 was then added for 5 minutes on a shaker. The plate was washed in 100 μl PBS and 50 μl of primary antibody (1:1000 rabbit anti-phosphohistone H3 in PBS 1% BSA 0.5% tween) was added. The plate was left for at least 1 hour at room temperature, on a shaker, after which the antibody was removed and the cells washed twice with PBS. In darkness, 50 μl of secondary antibody (1:10,000 Hoechst and 1:1000 Alexa Fluor 488 anti rabbit in PBS 1% BSA 0.5% tween) was added and the plate left for at least 1 hour at room temperature. The secondary antibody was removed and the plate washed twice with PBS. 200 μl PBS was then added and left for 10 minutes with shaking. The PBS was removed. 100 μl PBS was added and the plate sealed prior to analysis. […]
The plate was analysed on a Cellomics Arrayscan using the Target Activation algorithm. […]

This is an account of results in US20090253616A1, “COMBINATION THERAPY FOR THE TREATMENT OF CANCER” (ASTRAZENECA AB, priority 2006, published 2009).

As for `CCN(CCCOc1ccc2c(Nc3cc(CC(=O)Nc4cccc(F)c4)[nH]n3)ncnc2c1)CCOP(=O)(O)O` [aurora kinase inhibitor, 2-[[3-({4-[(5-{2-[(3-fluorophenyl)amino]-2-oxoethyl}-1H-pyrazol-3-yl)amino]-quinazolin-7-yl}oxy)propyl](ethyl)amino]ethyl dihydrogen phosphate], the “activity of aurora kinase inhibitor alone (inhibition of phH3)” value (100 nM) is “inactive”. In addition, the “Pgp mediated efflux of the compound (substrate of Pgp)” value (efflux inhibited by UIC2 mAb 10 μg/ml) is on record as “Pgp mediated efflux”.
